# Reference: the supplement of paper PMC10307832
# Compound: COC1=C(C=C(C=C1)C2=CC3=NC=CN3C(=N2)NC4=C(C=CC=N4)C(=O)N)OC [BAY61-3606] + CC1(C)CCC(c2ccc(Cl)cc2)=C(CN2CCN(c3ccc(C(=O)NS(=O)(=O)c4ccc(N[C@H](CCN5CCOCC5)CSc5ccccc5)c(S(=O)(=O)C(F)(F)F)c4)cc3)CC2)C1 [Navitoclax] (partner 0.5 µM)
# Assay: relative viability (nuclei count vs DMSO), 5 days (fraction); higher = more cells survive
# Settings: first compound 2 µM
# Outline: (§1)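 Relative viability was taken as the ratio of nuclei in treated wells to nuclei in vehicle wells. Lung cancer cell lines in 1536-well plates received compounds by pin tool one day after seeding, either one drug alone or a fixed anchor-drug dose plus five library-drug doses (not always all listed) in √10 steps. Nuclei were counted on 4× images after 5 days of treatment, and values are medians of duplicate plates.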
row,Cell Line,relative viability
1,NCI-H1755,0.782

# Compound: COc1cccc2c1C(=O)c1c(O)c3c(c(O)c1C2=O)C[C@@](O)(C(=O)CO)C[C@@H]3O[C@H]1C[C@H](N)[C@H](O)[C@H](C)O1 [Doxorubicin] + CC1(C)CCC(c2ccc(Cl)cc2)=C(CN2CCN(c3ccc(C(=O)NS(=O)(=O)c4ccc(N[C@H](CCN5CCOCC5)CSc5ccccc5)c(S(=O)(=O)C(F)(F)F)c4)cc3)CC2)C1 [Navitoclax] (partner 0.5 µM)
# Assay: as above
# Settings: first compound 0.001 µM
# Outline: as §1
row,Cell Line,relative viability
1,NCI-H2009,1.21
2,NCI-H596,0.931
3,SK-LU-1,0.811
4,SW 1573,0.849
5,LCLC-97TM1,0.284
6,NCI-H2228,1.24
7,EMC-BAC-2,1.16
8,NCI-H2087,0.973
9,LK-2,0.894
10,NCI-H2126,0.853
11,H3255,0.603
12,COR-L23,1.03
13,COR-L 105,0.965
14,LC-2-ad,0.386
15,LU99A,0.783
16,ChaGo-K-1,1.16
17,NCI-H322M,1.18
18,HCC-78,0.41
19,LXF-289,0.935
20,BEN,0.0762
21,HARA,1.17
22,HCC-827,1.03
23,NCI-H520,1.06
24,NCI-H2023,0.956
25,A-427,1
26,NCI-H647,1.17
27,PC-3 [JPC-3],0.746
28,NCI-H1755,1

# Same assay, conditions: first compound 0.003162 µM
row,Cell Line,relative viability
1,NCI-H2009,1.15
2,NCI-H596,0.963
3,SK-LU-1,0.631
4,SW 1573,1.09
5,LCLC-97TM1,0.411
6,NCI-H2228,0.752
7,EMC-BAC-2,1.25
8,NCI-H2087,1.05
9,LK-2,0.875
10,NCI-H2126,0.826
11,NCI-H1793,0.448
12,H3255,0.617
13,COR-L23,1.12
14,COR-L 105,0.721
15,LC-2-ad,0.384
16,LU99A,0.919
17,ChaGo-K-1,0.807
18,NCI-H322M,1.19
19,HCC-78,0.689
20,LXF-289,0.939
21,BEN,0.071
22,HARA,1.09
23,HCC-827,1.03
24,NCI-H520,1.29
25,LOU-NH91,0.561
26,NCI-H2023,1.05
27,A-427,0.978
28,NCI-H647,1.4
29,PC-3 [JPC-3],0.79
30,NCI-H1755,1.03

# Same assay, conditions: first compound 0.01 µM
row,Cell Line,relative viability
1,NCI-H2009,1.17
2,NCI-H596,0.903
3,SK-LU-1,0.806
4,SW 1573,1.04
5,LCLC-97TM1,0.524
6,NCI-H2228,0.876
7,EMC-BAC-2,1.16
8,NCI-H2087,1.05
9,LK-2,0.889
10,NCI-H2126,0.864
11,NCI-H1793,0.393
12,H3255,0.53
13,COR-L23,0.82
14,COR-L 105,0.724
15,LC-2-ad,0.567
16,LU99A,0.867
17,ChaGo-K-1,0.888
18,NCI-H322M,1.15
19,HCC-78,0.753
20,LXF-289,0.873
21,BEN,0.0683
22,HARA,1.18
23,HCC-827,1.06
24,NCI-H520,1.02
25,LOU-NH91,0.711
26,NCI-H2023,0.886
27,A-427,0.966
28,NCI-H647,0.992
29,PC-3 [JPC-3],0.703
30,NCI-H1755,0.927

# Same assay, conditions: first compound 0.03162 µM
row,Cell Line,relative viability
1,NCI-H2009,0.962
2,NCI-H596,0.832
3,SK-LU-1,0.301
4,SW 1573,0.526
5,LCLC-97TM1,0.398
6,NCI-H2228,0.552
7,EMC-BAC-2,1.19
8,NCI-H2087,0.967
9,LK-2,0.638
10,NCI-H2126,0.884
11,NCI-H1793,0.478
12,H3255,0.457
13,COR-L23,0.63
14,COR-L 105,0.48
15,LC-2-ad,0.496
16,LU99A,0.554
17,ChaGo-K-1,0.515
18,NCI-H322M,1.31
19,HCC-78,0.692
20,LXF-289,0.983
21,BEN,0.0474
22,HARA,1.05
23,HCC-827,1.1
24,NCI-H520,0.886
25,LOU-NH91,0.444
26,NCI-H2023,0.482
27,A-427,0.983
28,NCI-H647,0.65
29,PC-3 [JPC-3],0.802
30,NCI-H1755,0.991

# Same assay, conditions: first compound 0.1 µM
row,Cell Line,relative viability
1,NCI-H2009,0.604
2,NCI-H596,0.972
3,SK-LU-1,0.218
4,SW 1573,0.196
5,LCLC-97TM1,0.331
6,NCI-H2228,0.321
7,EMC-BAC-2,1.15
8,NCI-H2087,0.918
9,LK-2,0.804
10,NCI-H2126,0.928
11,NCI-H1793,0.547
12,H3255,0.289
13,COR-L23,0.169
14,COR-L 105,0.377
15,LC-2-ad,0.506
16,LU99A,0.801
17,ChaGo-K-1,0.316
18,NCI-H322M,1.26
19,HCC-78,0.768
20,LXF-289,0.944
21,BEN,0.0661
22,HARA,1.15
23,HCC-827,1.03
24,NCI-H520,1
25,LOU-NH91,0.405
26,NCI-H2023,0.16
27,A-427,1.05
28,NCI-H647,0.517
29,PC-3 [JPC-3],0.819
30,NCI-H1755,1.02

# Compound: COc1cccc2c1C(=O)c1c(O)c3c(c(O)c1C2=O)C[C@@](O)(C(=O)CO)C[C@@H]3O[C@H]1C[C@H](N)[C@H](O)[C@H](C)O1 [Doxorubicin] + COc1cc2c(Oc3ccc(NC(=O)C4(C(=O)Nc5ccc(F)cc5)CC4)cc3F)ccnc2cc1OCCCN1CCOCC1 [Foretinib] (partner 0.25 µM)
# Assay: as above
# Settings: first compound 0.001 µM
# Outline: as §1
row,Cell Line,relative viability
1,NCI-H2009,1.13
2,NCI-H596,0.981
3,SK-LU-1,0.85
4,SW 1573,0.921
5,LCLC-97TM1,0.977
6,NCI-H2228,0.805
7,EMC-BAC-2,1.15
8,LK-2,1.2
9,NCI-H2126,1.29
10,H3255,0.791
11,COR-L23,0.964
12,COR-L 105,1.02
13,LC-2-ad,0.862
14,LU99A,0.832
15,ChaGo-K-1,1.03
16,NCI-H322M,0.92
17,HCC-78,0.577
18,LXF-289,0.958
19,BEN,0.978
20,HARA,0.791
21,HCC-827,1.07
22,NCI-H520,0.831
23,LOU-NH91,0.742
24,NCI-H2023,0.567
25,A-427,0.981
26,NCI-H647,1.2
27,PC-3 [JPC-3],1.05
28,NCI-H1755,0.981

# Same assay, conditions: first compound 0.003162 µM
row,Cell Line,relative viability
1,NCI-H2009,1.18
2,NCI-H596,1.04
3,SK-LU-1,0.812
4,SW 1573,1.19
5,LCLC-97TM1,0.861
6,NCI-H2228,0.992
7,EMC-BAC-2,1.06
8,NCI-H2087,1.1
9,LK-2,1.32
10,NCI-H2126,1.12
11,NCI-H1793,0.881
12,H3255,0.821
13,COR-L23,1.06
14,COR-L 105,0.943
15,LC-2-ad,0.778
16,LU99A,0.915
17,ChaGo-K-1,0.946
18,NCI-H322M,0.898
19,HCC-78,0.627
20,LXF-289,0.975
21,BEN,0.678
22,HARA,0.946
23,HCC-827,1
24,NCI-H520,0.729
25,LOU-NH91,0.879
26,NCI-H2023,0.934
27,A-427,1.13
28,NCI-H647,1.38
29,PC-3 [JPC-3],1.06
30,NCI-H1755,0.949

# Same assay, conditions: first compound 0.01 µM
row,Cell Line,relative viability
1,NCI-H2009,1.15
2,NCI-H596,0.976
3,SK-LU-1,0.76
4,SW 1573,0.829
5,LCLC-97TM1,0.895
6,NCI-H2228,0.689
7,EMC-BAC-2,0.861
8,NCI-H2087,1.03
9,LK-2,0.904
10,NCI-H2126,0.884
11,NCI-H1793,0.63
12,H3255,0.973
13,COR-L23,0.918
14,COR-L 105,0.9
15,LC-2-ad,0.714
16,LU99A,0.769
17,ChaGo-K-1,0.835
18,NCI-H322M,0.905
19,HCC-78,0.528
20,LXF-289,0.97
21,BEN,0.612
22,HARA,0.779
23,HCC-827,1.05
24,NCI-H520,0.619
25,LOU-NH91,0.944
26,NCI-H2023,0.507
27,A-427,0.97
28,NCI-H647,1.14
29,PC-3 [JPC-3],1.05
30,NCI-H1755,0.903

# Same assay, conditions: first compound 0.03162 µM
row,Cell Line,relative viability
1,NCI-H2009,0.947
2,NCI-H596,0.619
3,SK-LU-1,0.507
4,SW 1573,0.451
5,LCLC-97TM1,0.882
6,NCI-H2228,0.651
7,EMC-BAC-2,0.595
8,NCI-H2087,0.851
9,LK-2,0.826
10,NCI-H2126,1.12
11,NCI-H1793,0.531
12,H3255,0.818
13,COR-L23,0.64
14,COR-L 105,0.62
15,LC-2-ad,0.392
16,LU99A,0.721
17,ChaGo-K-1,0.937
18,NCI-H322M,0.717
19,HCC-78,0.517
20,LXF-289,1.09
21,BEN,0.49
22,HARA,0.816
23,HCC-827,0.984
24,NCI-H520,0.673
25,LOU-NH91,0.931
26,NCI-H2023,0.461
27,A-427,1.02
28,NCI-H647,0.882
29,PC-3 [JPC-3],0.97
30,NCI-H1755,0.971

# Same assay, conditions: first compound 0.1 µM
row,Cell Line,relative viability
1,NCI-H2009,0.946
2,NCI-H596,0.964
3,SK-LU-1,0.333
4,SW 1573,0.503
5,LCLC-97TM1,0.891
6,NCI-H2228,0.363
7,EMC-BAC-2,0.582
8,NCI-H2087,0.693
9,LK-2,1.41
10,NCI-H2126,1.28
11,NCI-H1793,0.594
12,H3255,0.863
13,COR-L23,0.221
14,COR-L 105,0.7
15,LC-2-ad,0.321
16,LU99A,0.802
17,ChaGo-K-1,0.826
18,NCI-H322M,0.562
19,HCC-78,0.499
20,LXF-289,0.98
21,BEN,0.582
22,HARA,0.866
23,HCC-827,0.982
24,NCI-H520,0.548
25,LOU-NH91,0.839
26,NCI-H2023,0.17
27,A-427,1.05
28,NCI-H647,0.545
29,PC-3 [JPC-3],1.06
30,NCI-H1755,0.937
